According to article PMC6271988, “New Potentially Active Pyrazinamide Derivatives Synthesized Under Microwave Conditions” (Molecules, 2014):

Columns and labels:
[1] = Lipophilicity HPLC determination (logk); assay type: physicochemical; settings: HPLC capacity factor, C18, MeOH 70%/H2O 30%, 30 °C
[2] = test system: Staphylococcus epidermidis; assay: Antibacterial in vitro screening, microdilution broth method; assay type: cell-based; settings: 80% inhibition of control
[3] = test system: PET in spinach chloroplasts; assay: Photosynthetic electron transport (PET) inhibition, DCPIP photoreduction; assay type: biochemical, Spinacia oleracea L.; settings: DCPIP photoreduction
Method: The inhibition of photosynthetic electron transport (PET) in spinach chloroplasts was determined spectrophotometrically (Genesys 6, Thermo Scientific, Madison, WI, USA) using an artificial electron acceptor 2,6-dichlorophenol-indophenol (DCPIP). The rate of photosynthetic electron transport was monitored as a photoreduction of DCPIP. Chloroplasts were prepared from Spinacia oleracea L.. The measurements were carried out in phosphate buffer (0.02 mol/L, pH 7.2) containing sucrose (0.4 mol/L), MgCl2 (0.005 mol/L) and NaCl (0.015 mol/L). The chlorophyll concentration was 30 mg/L and the samples were irradiated (~100 W/m^2 with 10 cm distance) with a halogen lamp (250 W). […] The studied compound were dissolved in DMSO due to their limited water solubility. […] The efficiency of studied compounds was expressed as 50% inhibition concentration relative to the untreated control. The standard for these measurements was DCMU (Diurone®).

[4] = test system: spectrum of fungi tested (8 fungal strains); assay: Antifungal evaluation, summary over the fungi tested; assay type: cell-based; settings: fungi tested, less active than the standards; read-out: IC80 antifungal
Method: Antifungal evaluation was also accomplished with microdilution broth method. On the contrary, there was used RPMI 1640 broth with glutamine as medium and conditions were humid and dark atmosphere, pH 7.0 (adjusted with 0.165 M morpholinepropanesulfonic acid, MOPS) and 35 °C. 8 fungal strains were used (Candida albicans ATCC 44859, Candida tropicalis 156, Candida krusei E28, Candida glabrata 20/I, Trichosporon asahii 1188, Aspergillus fumigatus 231, Lichtheimia corymbifera 272, Trichophyton mentagrophytes 445) together with four antimycotic standards amphotericin B, voriconazole, nystatin and fluconazole.

[5] = test system: aromatic amino acids of photosynthetic proteins in spinach chloroplasts; assay: Fluorescence emission spectra of aromatic amino acids in chloroplast suspension; parameters: species or system Spinacia oleracea L.; settings: c = 0, 6, 24 and 48 μmol/L; excitation 275 nm; chlorophyll 10 mg/L
Method: The emission fluorescence spectra of aromatic amino acids were recorded on the fluorescence spectrophotometer F-2000 (Hitachi, Tokyo, Japan). The samples of chloroplast suspensions with and without studied inhibitor were excited at wavelength of 275 nm, excitation slit 20 nm and emission slit 10 nm. The samples were kept in the dark for 2 min prior to the measurement. The phosphate buffer used for dilution of the chloroplast suspension was the same as described above. The compounds were added to chloroplast suspension in DMSO solution due to low aqueous solubility. The DMSO concentration in all samples was the same as in the control (10%). The chlorophyll concentration in chloroplast suspension was 10 mg/L.

For `CCCCCCNc1nccnc1C(N)=O` [Compound 7, 3-(Hexylamino)pyrazine-2-carboxamide], the logk [1] was 0.6860, the IC80 [2] was less than 250 µM and the IC50 [3] was 32.9 µM. For the same molecule, the IC80 [4] was no less than 250 µM and the “Quenching of aromatic amino acid fluorescence at 334 nm” value [5] was “increased with increasing concentration”.
